The record followed here is ChEMBL document CHEMBL5385887, “Discovery of Sibiriline derivatives as novel receptor-interacting protein kinase 1 inhibitors” (Eur J Med Chem, 2023).

The test system of data set [1] is L929. As to the kind of experiment: Anti-necroptosis activity against TNFalpha/z-VAD-fmk-induced mouse L929 cell necroptosis model assessed as cell viability pretreated with compound for 1 hr followed by treated with TZ for 6 hrs. Type of data set: functional, cell-based.
Data set [2] deals with T1, Receptor-interacting serine/threonine-protein kinase 1 (Homo sapiens, UniProt Q13546).
T1 sequence (Q13546 whole entry): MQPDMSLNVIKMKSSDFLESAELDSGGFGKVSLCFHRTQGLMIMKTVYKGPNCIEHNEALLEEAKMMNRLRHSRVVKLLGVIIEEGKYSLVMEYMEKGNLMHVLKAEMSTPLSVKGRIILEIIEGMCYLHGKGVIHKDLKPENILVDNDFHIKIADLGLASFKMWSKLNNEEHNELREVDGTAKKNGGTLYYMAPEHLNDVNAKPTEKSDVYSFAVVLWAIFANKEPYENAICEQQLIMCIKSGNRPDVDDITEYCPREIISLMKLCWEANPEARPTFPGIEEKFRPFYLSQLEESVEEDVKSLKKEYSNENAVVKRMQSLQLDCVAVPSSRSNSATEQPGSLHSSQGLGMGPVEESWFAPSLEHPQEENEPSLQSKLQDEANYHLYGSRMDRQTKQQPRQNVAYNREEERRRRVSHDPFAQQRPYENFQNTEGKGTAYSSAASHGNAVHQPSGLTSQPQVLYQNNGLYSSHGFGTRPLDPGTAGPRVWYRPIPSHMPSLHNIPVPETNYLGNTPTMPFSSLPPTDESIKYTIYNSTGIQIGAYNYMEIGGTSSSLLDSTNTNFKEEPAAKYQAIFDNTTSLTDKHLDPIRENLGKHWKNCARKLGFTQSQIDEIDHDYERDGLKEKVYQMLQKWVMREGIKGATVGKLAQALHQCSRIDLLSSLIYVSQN
Nature of the data set: Inhibition of RIPK1 (unknown origin) using MBP substrate incubated for 2 hrs by ADP-Glo kinase function assay. Background: ADP-Glo first removes unused ATP, then detects ADP through luciferase.

A short description of data set [3]: Cytotoxicity against mouse L929 cells by CCK-8 assay. The format is toxicity, cell-based.
The test system of data set [4] is Mus musculus. Nature of the data set: In vivo anti-necroptotic effect in TNFalpha-induced systemic inflammatory response syndrome C57BL/6J mouse model assessed as reduction in hypothermic injury by measuring increase in survival at 10 mg/kg, ip followed by compound treatment after 1 hr injected moue TNFalpha and measured continuously upto 72 hrs. Type of data set: functional. To be noted: time 73 hrs.

For data set [5], the system named is HT-29. As to the kind of experiment: Anti-necroptosis activity against TS-induced human HT-29 cell necroptosis model assessed as cell viability at 0.039 to 10 uM pretreated with compound for 1 hr followed by treated with TS for 12 hrs. Type of data set: functional, cell-based. To be noted: dose 0.039-10 µM.

The source made the active and inactive calls. The calls are words filed in the database; no cut-off is given here. Bounds are passed on as bounds.

On to `Oc1ccccc1-c1cc2cccnc2[nH]1`, for which, in data set [1], the EC50 (commonly the concentration needed to bring the measured effect to its halfway point) amounted to 1140 nM. 950 nM corresponded to half-maximal inhibition in data set [2] (IC50). In data set [3], the CC50 (as a rule, the concentration that lowers cell viability or growth by half) is above 50000 nM.

Take `CC(C)(C)Oc1ccc(-c2cnc3[nH]ccc3c2)cc1`: the EC50 in data set [1] is above 10000 nM. Further, the CC50 in data set [3] was above 20000 nM.

With `CC(C)NC(=O)c1ccc(-c2cc3cccnc3[nH]2)cc1`, the concentration for a half-maximal effect (EC50) in data set [1] amounted to 810 nM. In data set [2], the IC50 (usually the concentration needed to halve the response being measured) worked out at 500 nM. In data set [3], the CC50 was above 50000 nM.

As for `Nc1ccc(-c2cc3cccnc3[nH]2)cc1`, the EC50 in data set [1] came out at 270 nM. In data set [2], this compound had an IC50 of 240 nM. The compound also displayed a CC50 in data set [3] above 50000 nM.

Consider `Oc1ccc(-c2ccc(-c3cc4cccnc4[nH]3)cc2)cc1`, for which the EC50 in data set [1] is 350 nM. For the same compound, inhibition in data set [2] was half-maximal at 230 nM (IC50). Further, in data set [3], the CC50 was above 10000 nM.

On to `Oc1ccc(-c2cnc3[nH]ccc3n2)cc1`, for which the EC50 in data set [1] is 5100 nM. In data set [2], this compound returned an IC50 of 4860 nM. Besides, the CC50 in data set [3] is above 50000 nM.

Turning to `Oc1cccc(-c2cc3cccnc3[nH]2)c1`, the EC50 in data set [1] is 1230 nM. Further, the IC50 in data set [2] turned out to be 1080 nM. For the same compound, in data set [3], the CC50 is above 50000 nM.

As for `Oc1ccc(-c2ccnc3[nH]ccc23)cc1`, the EC50 in data set [1] was above 10000 nM. The same compound gave a CC50 in data set [3] above 50000 nM.

As for `O=C(c1ccc(-c2cc3cccnc3[nH]2)cc1)N1CCCCC1`, the EC50 in data set [1] came out at 130 nM. In data set [2], this compound registered an IC50 of 120 nM. Besides, the CC50 in data set [3] is above 50000 nM.

For `CN1C(=O)C(Cc2c[nH]c3ccccc23)NC1=S` (stereo unspecified) [NECROSTATIN], the survival at 10 mg/kg in data set [4] amounted to 25%.

With `c1cnc2[nH]c(-c3ccc4ncsc4c3)cc2c1`, the EC50 in data set [1] came to 340 nM. Also, half-maximal inhibition in data set [2] (IC50) required 350 nM. This compound also displayed a CC50 in data set [3] above 50000 nM.

As to `Oc1ccccc1-c1cnc2[nH]ccc2c1`, the EC50 in data set [1] is above 10000 nM. In data set [3], this compound registered a CC50 above 50000 nM.

Regarding `O=C(NC1CC1)c1ccc(-c2cc3cccnc3[nH]2)cc1`, in data set [1], the EC50 turned out to be 190 nM. In data set [2], the IC50 stood at 200 nM. The compound also showed a CC50 in data set [3] above 50000 nM.

Turning to `Oc1ccc(-c2cc3cccnc3[nH]2)cc1Cl`, the EC50 in data set [1] was 5140 nM. Besides, in data set [2], the IC50 is 3870 nM. The compound further gave a CC50 in data set [3] above 50000 nM.

Consider `Oc1ccc(-c2cnc3nccnc3c2)cc1`, for which the EC50 in data set [1] was above 10000 nM. In data set [3], this compound had a CC50 above 50000 nM.

Consider `Oc1ccc(-c2c[nH]c3ncccc23)cc1`, for which the EC50 in data set [1] is above 10000 nM. Also, in data set [3], the CC50 is above 50000 nM.

Turning to `Oc1ccc(-c2cnc3[nH]cnc3c2)cc1`, the EC50 in data set [1] is above 10000 nM. For the same compound, in data set [3], the CC50 is above 50000 nM.

As for `Oc1cccc(-c2cnc3[nH]ccc3c2)c1`, the EC50 in data set [1] was above 10000 nM. In data set [3], this compound returned a CC50 above 50000 nM.

With `NC(=O)c1ccc(-c2cnc3[nH]ccc3c2)cc1`, in data set [1], the concentration giving a half-maximal response (EC50) is 710 nM. In data set [2], this compound yielded an IC50 of 170 nM. The compound also came in with a CC50 in data set [3] above 50000 nM.

In the case of `c1ccc(Oc2ccc(-c3cc4cccnc4[nH]3)cc2)cc1`, the half-maximal effective concentration (EC50) in data set [1] amounted to 7540 nM. Also, the IC50 in data set [2] came to 9000 nM. In addition, the CC50 in data set [3] was above 50000 nM.

For the compound `c1ccc(Oc2ccccc2-c2cnc3[nH]ccc3c2)cc1`, the EC50 in data set [1] was above 10000 nM. In addition, the CC50 in data set [3] is above 20000 nM.

In the case of `c1cnc2[nH]c(-c3ccc4c(c3)CCCO4)cc2c1`, in data set [1], the EC50 worked out at 890 nM. This compound also yielded an IC50 in data set [2] of 1180 nM. The compound further gave a CC50 in data set [3] above 50000 nM.

Turning to `O/N=C/c1ccc(-c2cc3cccnc3[nH]2)cc1`, in data set [1], the EC50 turned out to be 670 nM. The compound further came in with an IC50 in data set [2] of 270 nM. For the same compound, the CC50 in data set [3] was above 50000 nM.

Regarding `O/N=C/c1ccc(-c2cnc3[nH]ccc3c2)cc1`, the EC50 in data set [1] came to 4270 nM. 3660 nM corresponded to half-maximal inhibition in data set [2] (IC50). In data set [3], this compound came in with a CC50 above 20000 nM.

As to `Oc1ccc(-c2ccc3cc[nH]c3n2)cc1`, in data set [1], the EC50 is above 10000 nM. This compound also registered a CC50 in data set [3] above 50000 nM.

For `N#Cc1ccc(-c2cnc3[nH]ccc3c2)cc1`, in data set [1], the EC50 was 1850 nM. Moreover, 1170 nM corresponded to half-maximal inhibition in data set [2] (IC50). Also, in data set [3], the 50% cytotoxic concentration (CC50) was above 50000 nM.

On to `COc1ccc(-c2cc3ccc[nH]c-3n2)cc1`, for which, in data set [1], the EC50 amounted to 150 nM. For the same compound, in data set [2], the IC50 came to 90 nM. The compound also displayed a CC50 in data set [3] above 50000 nM.

As for `COc1cc(-c2cc3cccnc3[nH]2)ccc1O`, in data set [1], the EC50 worked out at 140 nM. This compound also displayed a half-inhibitory concentration (IC50) in data set [2] of 120 nM. The same compound came in with a CC50 in data set [3] above 50000 nM.

Take `O=C(c1ccc(-c2cc3cccnc3[nH]2)cc1)N1CCCC1`: the EC50 in data set [1] was 260 nM. The compound also returned an IC50 in data set [2] of 140 nM. For the same compound, in data set [3], the CC50 was above 50000 nM.

Take `CNC(=O)c1ccc(-c2cc3cccnc3[nH]2)cc1`: the EC50 in data set [1] was found to be 95 nM. The same compound displayed a 50% inhibitory concentration (IC50) in data set [2] of 93 nM. For the same compound, the CC50 in data set [3] was above 50000 nM.

Turning to `Oc1ccc2ccc(-c3cc4cccnc4[nH]3)cc2c1`, in data set [1], the EC50 is 1420 nM. This compound also came in with an IC50 in data set [2] of 2600 nM. This compound also showed a CC50 in data set [3] above 50000 nM.

In the case of `CCNC(=O)c1ccc(-c2cc3cccnc3[nH]2)cc1`, the EC50 in data set [1] worked out at 240 nM. The IC50 in data set [2] was determined as 180 nM. This compound also returned a CC50 in data set [3] above 50000 nM.

For the compound `O=C(c1ccc(-c2cc3cccnc3[nH]2)cc1)N1CCNCC1`, the EC50 in data set [1] was determined as 90 nM. This compound returned an IC50 in data set [2] of 100 nM. In data set [3], the CC50 was above 50000 nM.

As for `Oc1ccc(-c2cc3cccnc3[nH]2)cc1`, the concentration giving a half-maximal response (EC50) in data set [1] was found to be 1310 nM. Moreover, the outcome in data set [5] was inactive. In data set [3], this compound gave a CC50 above 50000 nM.

Regarding `OCCc1ccc(-c2cc3cccnc3[nH]2)cc1`, the EC50 in data set [1] stood at 300 nM. This compound also showed an IC50 in data set [2] of 230 nM. The CC50 in data set [3] is above 50000 nM.

For `Oc1ccc(-c2cnc3[nH]ccc3c2)cc1`, the EC50 in data set [1] came out at 1470 nM. This compound gave an IC50 in data set [2] of 1090 nM. The CC50 in data set [3] was above 50000 nM.

Take `CC(C)(C)Oc1ccc(-c2cc3cccnc3[nH]2)cc1`: the EC50 in data set [1] amounted to 170 nM. In data set [2], the IC50 was 220 nM. In data set [3], this compound had a CC50 above 50000 nM.

As for `Oc1ccc(-c2cc3cccnc3[nH]2)cc1F`, in data set [1], the EC50 came out at 1180 nM. For the same compound, inhibition in data set [2] was half-maximal at 2560 nM (IC50). In data set [3], this compound came in with a CC50 above 50000 nM.

Regarding `OCc1ccc(-c2cc3cccnc3[nH]2)cc1`, the EC50 in data set [1] was found to be 140 nM. The compound also registered an IC50 in data set [2] of 170 nM. Besides, the CC50 in data set [3] is above 50000 nM.

Turning to `CN1CCN(C(=O)c2ccc(-c3cc4cccnc4[nH]3)cc2)CC1`, the EC50 in data set [1] was 60 nM. The IC50 in data set [2] was 100 nM. The same compound gave a CC50 in data set [3] above 20000 nM.

Consider `NC(=O)c1ccc(-c2cc3cccnc3[nH]2)cc1`, for which the EC50 in data set [1] is 90 nM. The compound further yielded an IC50 in data set [2] of 110 nM. Also, in data set [3], the CC50 is above 50000 nM.

`CCCNC(=O)c1ccc(-c2cc3cccnc3[nH]2)cc1`: in data set [1], the EC50 was 810 nM. For the same compound, 630 nM corresponded to half-maximal inhibition in data set [2] (IC50). Also, the 50% cytotoxic concentration (CC50) in data set [3] was above 50000 nM.

Consider `CC(C)N(C(=O)c1ccc(-c2cc3cccnc3[nH]2)cc1)C(C)C`, for which the EC50 in data set [1] was determined as 190 nM. Moreover, in data set [2], the IC50 was determined as 130 nM. This compound also gave a CC50 in data set [3] above 50000 nM.

With `CC(C)(C)NC(=O)c1ccc(-c2cc3cccnc3[nH]2)cc1`, the EC50 in data set [1] was 170 nM. Besides, in data set [2], inhibition was half-maximal at 90 nM (IC50). Also, the CC50 in data set [3] is above 50000 nM.
